{
  "source": "patent US11698357B2",
  "about": "“Method for screening, isolating and purifying analytes” (CHANG GUNG UNIVERSITY, priority 2019, dated 2023)",
  "key": {"MES-SA cells [1]": {"tested_on": "MES-SA cells", "test": "Percentage of live cells by fluorescent dye staining (Calcein-AM / EthD-1) and microscopy", "format": "cell-based, human", "description": "(§1) In the present embodiment, cancer cell lines with (MES-SA/Dx5 cells; abbreviated as “Dx5” from the BCRC of Food Industry Research and Development Institute (FIRDI), Taiwan) and without (MES-SA cells from the BCRC of FIRDI) anti-cancer drug resistance were separately treated with various concentrations (0, 2.5, 5.0, 7.5, 10.0, 12.5, 15.0 μg ml^−1) of doxorubicin (doxorubicin hydrochloride; Enzo Life Sciences, CH) for 48 hours. The percentage of live cells was then evaluated by a combination of fluorescent dye staining and microscopic observation. Briefly, the drug-treated Dx5 cells were stained with the DiB cytoplasmic membrane labelling dye (Biotium, CA USA) and EthD-1 fluorescent dye (ethidium homodimer-1; Thermo Fisher Scientific, MA USA) to identify the living (blue staining), and dead (red staining) Dx5 cells, respectively. The drug-treated MES-SA cells were stained with Calcein-AM and EthD-1 fluorescent dyes (LIVE/DEAD1 Viability/Cytotoxicity Kit L-3224; Thermo Fisher Scientific, MA USA) to identify the living (green staining) and dead (red staining) cells, respectively. All the assays were performed according to the manufacturer's instructions. This was followed by microscopic observation using a fluorescence microscope (Zoom 160, OPTEM, USA). The overall viability of the cancer cells was then evaluated by determining the number of live cells relative to that of whole cells."}, "MES-SA/Dx5 cells [2]": {"tested_on": "MES-SA/Dx5 cells", "test": "Percentage of live cells by fluorescent dye staining (DiB / EthD-1) and microscopy", "format": "cell-based, human", "description": "as §1"}, "MES-SA cells [3]": {"tested_on": "MES-SA cells", "test": "MTT assay cell viability", "format": "cell-based, human", "conditions": "48 hours", "description": "(§2) Cell viability was also evaluated by assaying the intercellular dehydrogenase activity of cells using the commonly used MTT (thiazolyl blue tetrazolium bromide; Sigma Aldrich, MO USA) assay. Briefly, the cancer cells (i.e., MES-SA and Dx5 cells) were separately treated with doxorubicin as mentioned above. The drug-treated cancer cells were then assayed for viability (%) based on the manufacturer's instructions for the MTT assay kit."}, "MES-SA/Dx5 cells [4]": {"tested_on": "MES-SA/Dx5 cells", "test": "MTT assay cell viability", "format": "cell-based", "conditions": "Homo sapiens, 5.0 μg ml^−1 doxorubicin, 48 hours", "description": "as §2"}, "[5]": {"conditions": "5.0 μg ml^−1 doxorubicin for 48 hours"}, "[6]": {"conditions": "5.0 μg ml^−1 doxorubicin, 48 hours"}},
  "data": [
    {"molecule": "COc1cccc2c1C(=O)c1c(O)c3c(c(O)c1C2=O)C[C@@](O)(C(=O)CO)C[C@@H]3O[C@H]1C[C@H](N)[C@H](O)[C@H](C)O1", "note": "[doxorubicin]", "values": [
      {"measurement": "dead cell percentage", "setting": "MES-SA cells [1]; [5]", "result": 73.9, "unit": "%"},
      {"measurement": "percentage of live cells", "setting": "MES-SA cells [1]; [6]", "result": 26.1, "unit": "%"},
      {"measurement": "dead cell percentage", "setting": "MES-SA/Dx5 cells [2]; [5]", "result": 4.5, "unit": "%"},
      {"measurement": "percentage of live cells", "setting": "MES-SA/Dx5 cells [2]; [6]", "result": 95.5, "unit": "%"},
      {"measurement": "viability at 5 µg/mL", "setting": "MES-SA cells [3]; Homo sapiens, 5.0 μg ml^−1 doxorubicin", "result": 2.2, "unit": "%"},
      {"measurement": "cell viability (%) (MTT)", "setting": "MES-SA cells [3]; various concentrations of doxorubicin", "result": "~0", "unit": "%"},
      {"measurement": "viability at 5 µg/mL", "setting": "MES-SA/Dx5 cells [4]", "result": 73.5, "unit": "%"}
    ]}
  ]
}
